Assay results taken from publication PMC4749844, “Investigation of Calcium Channel Blockers as Antiprotozoal Agents and Their Interference in the Metabolism of Leishmania (L.) infantum” (Evidence-based Complementary and Alternative Medicine : eCAM, 2016).
Like-named read-outs stand apart in the source and are kept apart here.

Tests used:
[1] = test system: L. (L.) infantum promastigotes; assay: Mitochondrial membrane potential, MitoTracker Red; format: cell-based, Leishmania (L.) infantum; conditions: for reduction of MitoTracker Red fluorescence levels relative to untreated parasites: 20 μM, 60 minutes, p < 0.05
Protocol: L. […] Then MitoTracker® Red CM-H2XROS (500 nM) was added and the incubation was continued for 40 minutes in the dark. […] Nitazoxanide (60 μg/mL) was used as a positive control and untreated promastigotes were used as negative control.

[2] = test system: L. (L.) infantum promastigotes; assay: Reactive oxygen species (ROS), H2DCF-DA; format: cell-based, Leishmania (L.) infantum; conditions: for regulation of ROS content compared to untreated parasites: amlodipine, fendiline 20 μM, 60 minutes
Protocol: L. (L.) infantum promastigotes (2 × 10^6 cells/well) were washed in HBSS medium and incubated with amlodipine or fendiline (20 μM) for 60 minutes at 24°C. To these cells 2′,7′-dichlorodihydrofluorescein diacetate (H2DCf-DA) was added (5 μM) and incubation was prolonged for 15 minutes. […] Nitazoxanide (60 μg/mL) was used as positive control and untreated promastigotes were used as negative control.

[3] = test system: L. (L.) infantum promastigotes; conditions: not told
Protocol: L. (L.) infantum promastigotes were washed with PBS, deposited on a 96-well microplate (2 × 10^6 parasites/well) and incubated with SYTOX® Green (1 μM) for 15 minutes at 24°C [10]. Amlodipine and fendiline were added at 20 μM and the fluorescence was measured up to 60 minutes. The fluorescence intensity was determined using a fluorimetric microplate reader (FilterMax F5 Multi-Mode Microplate Reader-Molecular Devices) with excitation and emission wavelengths of 485 and 520 nm, respectively. Triton X-100 (0.1%) was used as positive control and untreated promastigotes were used as negative control.

[4] = test system: T. cruzi epimastigotes; design: method as in PMID 9457486; conditions: in vitro; read-out: IC50 against T. cruzi epimastigotes; cited from earlier work
[5] = test system: L. (L.) infantum promastigotes; assay: Antileishmanial activity against promastigotes, MTT assay; format: cell-based, Leishmania (L.) infantum; conditions: 24 hours at 24°C, highest concentration 100 μM; for IC50: Leishmania infantum, read-out: IC50 ± SD, L. (L.) infantum promastigotes
Protocol: (§1) Promastigotes of L. (L.) amazonensis (WHO/BR/00/LT0016), L. (V.) braziliensis (MHO/BR/75/M2903), and L. (L.) infantum (MHOM/BR/1972/LD) [synonymous with L. (L.) chagasi] were maintained in M199 medium supplemented with 10% calf serum and 0.25% hemin at 24°C. L. (L.) infantum amastigotes were obtained from the spleen of infected hamster by differential centrifugation at the 60–70th days after infection. Macrophages were collected from the peritoneal cavity of BALB/c mice by washing with RPMI-1640 medium supplemented with 10% fetal calf serum and were maintained at 37°C in a 5% CO2 humidified incubator. Trypanosoma cruzi trypomastigotes (Y strain) were maintained in LLC-MK2 (ATCC CCL 7) cells using RPMI-1640 medium supplemented with 2% calf serum at 37°C in a 5% CO2 humidified incubator.
(§2) To determine the 50% inhibitory concentration (IC50) against Leishmania promastigotes, the drugs were dissolved in DMSO and diluted with M199 medium in 96-well microplates, with 100 μM as the highest concentration. Each drug was tested twice at eight concentrations prepared in twofold dilutions. Promastigotes were counted in a Neubauer hemocytometer and seeded at 1 × 10^6 parasites/well with a final volume of 150 μL. Controls with DMSO and without drugs were performed. Pentamidine was used as a standard drug. The plate was incubated for 24 hours at 24°C and the viability of promastigotes was verified by the MTT assay. Briefly, MTT (5 mg/mL) was dissolved in PBS, sterilized through 0.22 μm membrane and 20 μL/well was added, for 4 hours at 24°C. Promastigotes were incubated without compounds and used as a viability control. Formazan extraction was performed using 10% SDS for 18 hours (80 μL/well) at 24°C, and the optical density was determined in a Multiskan MS (UNISCIENCE) plate reader at 550 nm. The 100% viability was expressed based on the optical density of control promastigotes, after normalization. […] Plates were incubated at 37°C in a 5% CO2 humidified incubator for 24 hours. L. (L.) infantum amastigotes extracted from spleens and separated by differential centrifugation were added to macrophages at a ratio of 10 : 1 (amastigotes : macrophage). After 24 hours, extracellular parasites were removed by washing, fresh medium containing the drugs and controls was added, and the cells were incubated at 37°C for a period of 120 hours. Further medium changes with fresh drugs were carried out after 72 hours. At the end of the assay, the slides were stained with Giemsa and observed using light microscopy. Glucantime was used as a standard drug. The IC50 was determined by the number of infected macrophages in 400 cells.

[6] = test system: L. (L.) infantum intracellular amastigotes; assay: Activity against intracellular amastigotes in peritoneal macrophages, Giemsa staining and light microscopy; format: cell-based, Leishmania (L.) infantum; conditions: for IC50 / IC50 ± SD, L. (L.) infantum amastigotes: intracellular amastigotes in BALB/c peritoneal macrophages, 120 hours; for IC50: read-out: IC50 ± SD, L. (L.) infantum amastigotes; for Selectivity Index (SI), L. (L.) infantum amastigotes: ratio between cytotoxicity to LLC-MK2 cells and antiparasitic activity
Protocol: as §1, §2

[7] = test system: L. (L.) amazonensis promastigotes; assay: Antileishmanial activity against promastigotes, MTT assay; format: cell-based, Leishmania (L.) amazonensis; conditions: 24 hours at 24°C, highest concentration 100 μM; for IC50: Leishmania amazonensis, read-out: IC50 ± SD, L. (L.) amazonensis promastigotes
Protocol: as §1, §2

[8] = test system: L. (V.) braziliensis promastigotes; assay: as above; format: cell-based, Leishmania (V.) braziliensis; conditions: 24 hours at 24°C, highest concentration 100 μM; for IC50: Leishmania, read-out: IC50 ± SD, L. (V.) braziliensis promastigotes
Protocol: as §1, §2

[9] = test system: T. cruzi trypomastigotes; assay: Antitrypanosomal activity, MTT assay; format: cell-based, Trypanosoma cruzi; conditions: for IC50 / IC50 ± SD, T. cruzi trypomastigotes: 24 hours at 37°C, highest concentration 100 μM; for IC50: read-out: IC50 ± SD, T. cruzi trypomastigotes; for Selectivity Index (SI), T. cruzi trypomastigotes: ratio between cytotoxicity to LLC-MK2 cells and antiparasitic activity
Protocol: as §1
To determine the IC50 against T. cruzi trypomastigotes, drugs were dissolved in DMSO and diluted with RPMI-1460 medium in 96-well microplates, with the highest concentration at 100 μM. Trypomastigotes obtained from LLC-MK2 cultures were counted in a Neubauer hemocytometer and seeded at 1 × 10^6 parasites/well in 96-well microplates. Test drugs were incubated for 24 hours at 37°C in a 5% CO2 humidified incubator and the viability of trypomastigotes was verified by the MTT assay as described above. Benznidazole was used as a standard drug.

[10] = Cytotoxicity in mammalian cells, MTT assay; format: cell-based; conditions: rhesus monkey, LLC-MK2 cells; 48 hours at 37°C; read-out: IC50 ± SD, LLC-MK2 cytotoxicity
Protocol: LLC-MK2 were seeded at 5 × 10^4 cells/well in 96-well microplates and incubated with drugs with 200 μM as the highest concentration, for 48 hours at 37°C in a 5% CO2 humidified incubator. The viability of the cells was determined by the MTT assay as described above. Control cells were incubated in the presence of DMSO and without drugs. Viability of 100% was expressed based on the optical density of control LLC-MK2 cells, after normalization. The Selectivity Index (SI) was given by the ratio between the cytotoxicity in LLC-MK2 cells and the antiparasitic activity.

[11] = test system: Leishmania spp. promastigotes; assay: Antileishmanial activity against promastigotes of all species tested, MTT assay; format: cell-based; conditions: range over the Leishmania species tested
Protocol: as §1
To determine the 50% inhibitory concentration (IC50) against Leishmania promastigotes, the drugs were dissolved in DMSO and diluted with M199 medium in 96-well microplates, with 100 μM as the highest concentration. Each drug was tested twice at eight concentrations prepared in twofold dilutions. Promastigotes were counted in a Neubauer hemocytometer and seeded at 1 × 10^6 parasites/well with a final volume of 150 μL. Controls with DMSO and without drugs were performed. Pentamidine was used as a standard drug. […]

[12] = test system: L. (L.) amazonensis; design: method as in PMID 9501844; conditions: read-out: IC50 against L. (L.) amazonensis; cited from earlier work
[13] = test system: L. (L.) major; design: method as in PMID 9501844; conditions: read-out: IC50 against L. (L.) major; cited from earlier work
[14] = Leishmania infantum, Peritoneal macrophage, in Mus musculus, 120 h

CCOC(=O)C1=C(COCCN)NC(C)=C(C(=O)OC)C1c1ccccc1Cl (stereo not drawn) [Amlodipine, amlodipine]
reduction of MitoTracker Red fluorescence levels relative to untreated parasites [1]: 7%
ROS levels, fold higher compared to fendiline ([2]; 20 μM): ~3 fold
upregulation of ROS, fold higher than nitazoxanide ([2]; amlodipine 20 μM, nitazoxanide 60 μg/mL): 1.99 fold
regulation of ROS content compared to untreated parasites ([2]; nitazoxanide 60 μg/mL): intense and significant (p < 0.05) upregulation of ROS content
plasma membrane permeability (SYTOX Green fluorescence) [3]: no interference on the plasma membrane permeability

COC(=O)C1=C(C)NC(C)=C(C(=O)OC(C)C)C1c1cccc2nonc12 (stereo not drawn) [isradipine]
IC50 [4]: 20 µM

CCOC(=O)C1=C(C)NC(C)=C(C(=O)OCC)C1c1ccccc1/C=C/C(=O)OC(C)(C)C [lacidipine]
IC50 [4]: 33 µM

CC(NCCC(c1ccccc1)c1ccccc1)c1ccccc1 (stereo not drawn) [Fendiline, fendiline]
IC50 [5]: 16.1 ± 4.2 µM
IC50 [6, 14]: 12 to 16 µM
IC50 [6]: 12.2 ± 1.74 µM
Selectivity Index (SI), L. (L.) infantum amastigotes [6]: 4.09
IC50 [7]: 8.66 ± 1.27 µM
IC50 [8]: 9.15 ± 0.78 µM
IC50 ([9]; Trypanosoma cruzi, 24 h): 12.1 ± 2.97 µM
Selectivity Index (SI), T. cruzi trypomastigotes [9]: 4.11
IC50 at 48 h [10]: 49.9 ± 8.16 µM
reduction of MitoTracker Red fluorescence levels relative to untreated parasites [1]: 18%
regulation of ROS content compared to untreated parasites ([2]; nitazoxanide 60 μg/mL): intense and significant (p < 0.05) upregulation of ROS content
plasma membrane permeability (SYTOX Green fluorescence) [3]: no interference on the plasma membrane permeability

N=C(N)c1ccc(OCCCCCOc2ccc(C(=N)N)cc2)cc1 [Pentamidine]
IC50 [5]: 1.06 ± 0.12 µM
IC50 [7]: 1.14 ± 0.15 µM
IC50 [8]: 0.69 ± 0.04 µM
IC50 at 48 h [10]: 23.5 ± 3.53 µM
IC50 [11]: 0.69 to 1.14 µM

Nc1cc(-c2ccncc2)c[nH]c1=O [Amrinone]
IC50 ± SD, L. (L.) infantum promastigotes [5]: ne^b
IC50 ± SD, L. (L.) infantum amastigotes [6]: ne^b
IC50 ± SD, L. (L.) amazonensis promastigotes [7]: ne^b
IC50 ± SD, L. (V.) braziliensis promastigotes [8]: ne^b
IC50 ± SD, T. cruzi trypomastigotes [9]: ne^b
IC50 ± SD, T. cruzi trypomastigotes ([9]; listed as amrinone): inactive
IC50 at 48 h [10]: > 500 µM
IC50 [11]: > 100 µM

Cc1cccc(C)c1NC(=O)CN1CCN(CCCC(c2ccc(F)cc2)c2ccc(F)cc2)CC1 [Lidoflazine, lidoflazine]
IC50 [5]: 17.7 ± 0.93 µM
IC50 [6, 14]: 12 to 16 µM
IC50 [6]: 16.3 ± 4.45 µM
Selectivity Index (SI), L. (L.) infantum amastigotes [6]: 6.54
IC50 [7]: 11.5 ± 1.49 µM
IC50 [8]: 14.5 ± 1.08 µM
IC50 ([9]; Trypanosoma cruzi, 24 h): 10.4 ± 1.87 µM
Selectivity Index (SI), T. cruzi trypomastigotes [9]: 10.25
IC50 at 48 h [10]: 107 ± 58 µM

CC(=O)Oc1ccccc1C(=O)Nc1ncc([N+](=O)[O-])s1 [Nitazoxanide]
effect on mitochondrial membrane potential (fluorescence intensity) ([1]; nitazoxanide 60 μg/mL, positive control): strong reduction of fluorescence intensity
regulation of ROS content compared to untreated parasites ([2]; nitazoxanide 60 μg/mL): significant upregulation of ROS

COCC(=O)O[C@]1(CCN(C)CCCc2nc3ccccc3[nH]2)CCc2cc(F)ccc2[C@@H]1C(C)C [Mibefradil, mibefradil]
IC50 [5]: 3.6 ± 0.11 µM
IC50 ± SD, L. (L.) infantum amastigotes [6]: ne^b
IC50 ± SD, L. (L.) infantum amastigotes ([6]; listed as mibefradil): lack of activity
IC50 [7]: 2.23 ± 0.42 µM
IC50 [8]: 2.75 ± 0.39 µM
IC50 ([9]; Trypanosoma cruzi, 24 h): 2.99 ± 0.43 µM
Selectivity Index (SI), T. cruzi trypomastigotes [9]: 4.01
IC50 at 48 h [10]: 12 ± 1.03 µM

Triton X-100
plasma membrane permeability (SYTOX Green fluorescence) [3]: fully permeabilized parasites

O=C(Cn1ccnc1[N+](=O)[O-])NCc1ccccc1 [Benznidazole]
IC50 [9]: 440 ± 39.1 µM
IC50 ([9]; Trypanosoma cruzi, 24 h): 440 µM
IC50 at 48 h [10]: > 500 µM

Nc1ccncc1 [4-aminopyridine]
IC50 [12]: 46 µM
IC50 [13]: > 400 µM
